Measurements: ChEMBL document CHEMBL1143219, “Proline bis-amides as potent dual orexin receptor antagonists” (Bioorg Med Chem Lett, 2008)

Columns and labels:
[1] = target: T1, Orexin receptor type 2 (Homo sapiens) (UniProt O43614); assay: Antagonist activity at human OX2R expressed in CHOK1 cells assessed as effect on calcium mobilization; type: functional, cell-based; details: CHO-K1
T1 sequence (whole entry): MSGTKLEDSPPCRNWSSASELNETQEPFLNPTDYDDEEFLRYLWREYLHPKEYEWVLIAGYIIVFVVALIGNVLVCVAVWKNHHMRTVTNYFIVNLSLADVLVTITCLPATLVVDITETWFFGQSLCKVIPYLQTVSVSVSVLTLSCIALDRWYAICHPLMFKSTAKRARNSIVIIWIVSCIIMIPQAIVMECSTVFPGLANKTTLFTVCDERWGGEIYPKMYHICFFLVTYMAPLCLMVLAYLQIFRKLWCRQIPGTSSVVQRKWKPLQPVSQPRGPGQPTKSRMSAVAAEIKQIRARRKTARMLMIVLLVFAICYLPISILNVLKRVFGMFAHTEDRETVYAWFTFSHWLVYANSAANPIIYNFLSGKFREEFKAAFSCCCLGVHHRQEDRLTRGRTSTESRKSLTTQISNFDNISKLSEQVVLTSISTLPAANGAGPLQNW

[2] = target: T2, Orexin/Hypocretin receptor type 1 (Homo sapiens, UniProt O43613); assay: Displacement of [3H](S)-1-[2-(1-methyl-1H-benzoimidazol-2-ylsulfanyl)-acetyl]-pyrrolidine-2-carboxylic acid biphenyl-2-ylamide from human OX1R expressed in CHO cells; type: cell-based
T2 sequence (O43613 whole entry): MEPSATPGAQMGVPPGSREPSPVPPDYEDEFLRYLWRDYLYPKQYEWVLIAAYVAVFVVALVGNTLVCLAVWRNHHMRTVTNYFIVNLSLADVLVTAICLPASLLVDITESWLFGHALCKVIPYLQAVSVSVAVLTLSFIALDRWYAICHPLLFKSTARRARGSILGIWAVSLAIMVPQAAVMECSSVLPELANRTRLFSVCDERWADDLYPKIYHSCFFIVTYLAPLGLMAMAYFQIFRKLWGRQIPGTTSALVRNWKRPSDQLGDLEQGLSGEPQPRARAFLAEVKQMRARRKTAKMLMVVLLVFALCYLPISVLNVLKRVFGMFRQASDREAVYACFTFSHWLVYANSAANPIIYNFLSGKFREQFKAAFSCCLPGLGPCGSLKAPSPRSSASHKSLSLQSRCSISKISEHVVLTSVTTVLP

Orexin receptor type 2 = target: T3, Orexin receptor type 2 (Homo sapiens, UniProt O43614); assay: Displacement of [3H](S)-N-(2-(1H-pyrrol-1-yl)phenyl)-1-(2-(1-methyl-1H-benzo[d]imidazol-2-ylthio)acetyl)pyrrolidine-2-carboxamide from human OX2R expressed in CHO cells; type: cell-based
T3 sequence (O43614 whole entry): T1 sequence (whole entry)

[3] = target: T4, Orexin/Hypocretin receptor type 1 (Rattus norvegicus) (UniProt P56718); assay: Antagonist activity at rat OX1R assessed as effect on calcium mobilization; type: functional
T4 sequence (whole entry): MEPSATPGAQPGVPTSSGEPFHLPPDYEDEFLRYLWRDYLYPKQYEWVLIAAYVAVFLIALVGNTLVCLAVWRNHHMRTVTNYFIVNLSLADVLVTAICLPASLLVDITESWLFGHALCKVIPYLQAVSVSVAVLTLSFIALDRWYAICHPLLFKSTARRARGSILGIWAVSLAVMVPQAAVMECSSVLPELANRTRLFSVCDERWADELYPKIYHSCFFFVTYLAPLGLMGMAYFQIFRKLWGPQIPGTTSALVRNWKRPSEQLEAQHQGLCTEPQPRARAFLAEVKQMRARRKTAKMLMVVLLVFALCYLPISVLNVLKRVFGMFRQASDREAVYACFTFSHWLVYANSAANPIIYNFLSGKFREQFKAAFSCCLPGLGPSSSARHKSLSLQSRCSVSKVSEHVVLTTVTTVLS

[4] = Half life in rat; type: ADME, organism-based; details: in vivo
[5] = Inhibition of sodium channel at site 2
[6] = target: T5, Thyrotropin-releasing hormone receptor (Homo sapiens) (UniProt P34981); assay: Inhibition of TRH receptor
T5 sequence (whole entry): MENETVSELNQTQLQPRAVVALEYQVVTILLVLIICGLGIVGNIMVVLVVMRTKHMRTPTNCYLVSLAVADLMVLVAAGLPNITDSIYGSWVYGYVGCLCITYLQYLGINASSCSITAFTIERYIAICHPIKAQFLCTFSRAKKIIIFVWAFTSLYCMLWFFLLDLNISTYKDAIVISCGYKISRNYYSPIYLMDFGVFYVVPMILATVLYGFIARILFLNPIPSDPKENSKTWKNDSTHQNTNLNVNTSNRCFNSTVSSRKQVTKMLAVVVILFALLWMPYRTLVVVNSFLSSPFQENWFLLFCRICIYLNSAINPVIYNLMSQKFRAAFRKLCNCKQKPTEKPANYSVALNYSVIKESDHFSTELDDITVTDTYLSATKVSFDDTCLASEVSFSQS

[7] = Drug level in rat cerebrospinal fluid at 100 mg/kg, ip after 30 mins; type: ADME, organism-based; set-up: dose 100 mg/kg, route intraperitoneal; details: read-out: Drug uptake
[8] = target: Synaptic vesicular amine transporter (Homo sapiens) (UniProt Q05940); assay: Inhibition of monoamine transporter
Chain of Synaptic vesicular amine transporter (Homo sapiens) (Q05940 whole entry): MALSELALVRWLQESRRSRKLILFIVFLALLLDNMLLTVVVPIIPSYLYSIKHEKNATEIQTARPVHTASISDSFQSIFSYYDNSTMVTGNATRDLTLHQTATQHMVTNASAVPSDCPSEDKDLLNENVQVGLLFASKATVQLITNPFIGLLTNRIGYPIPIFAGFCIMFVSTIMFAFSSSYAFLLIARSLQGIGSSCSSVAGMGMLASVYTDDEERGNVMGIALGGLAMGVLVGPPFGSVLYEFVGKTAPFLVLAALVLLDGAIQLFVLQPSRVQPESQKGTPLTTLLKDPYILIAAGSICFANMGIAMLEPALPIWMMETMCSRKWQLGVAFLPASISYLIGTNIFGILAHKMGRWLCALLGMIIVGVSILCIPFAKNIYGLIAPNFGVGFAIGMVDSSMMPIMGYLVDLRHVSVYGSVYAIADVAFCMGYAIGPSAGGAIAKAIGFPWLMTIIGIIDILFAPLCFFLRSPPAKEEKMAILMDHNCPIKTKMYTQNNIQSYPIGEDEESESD

[9] = Oral bioavailability in rat; type: ADME, organism-based; details: in vivo
Rattus norvegicus = assay: Inhibition of ADL-orexin-B-induced increase in locomotion activity in ip dosed rat; type: functional, organism-based
[10] = Clearance in rat; type: ADME, organism-based; details: in vivo
[11] = Inhibition of prostanoid receptor
[12] = Partition coefficient, log P of the compound; type: physicochemical; details: octanol/water
[13] = Drug level in rat brain at 100 mg/kg, ip after 30 mins; type: ADME, organism-based; set-up: dose 100 mg/kg, route intraperitoneal; details: read-out: Drug uptake
[14] = target: T6, Thromboxane A2 receptor (Homo sapiens) (UniProt P21731); assay: Inhibition of thromboxane A2 receptor
T6 sequence (whole entry): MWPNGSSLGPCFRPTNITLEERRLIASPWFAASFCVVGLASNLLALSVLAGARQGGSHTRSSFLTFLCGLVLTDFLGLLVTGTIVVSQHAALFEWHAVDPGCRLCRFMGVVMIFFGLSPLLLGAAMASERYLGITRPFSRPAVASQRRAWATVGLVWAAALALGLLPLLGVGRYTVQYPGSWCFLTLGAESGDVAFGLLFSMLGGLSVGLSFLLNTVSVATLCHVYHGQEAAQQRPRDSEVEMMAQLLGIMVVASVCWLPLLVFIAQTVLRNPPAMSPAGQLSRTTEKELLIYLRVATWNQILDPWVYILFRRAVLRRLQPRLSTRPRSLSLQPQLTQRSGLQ

[15] = Drug level in rat plasma at 100 mg/kg, ip after 30 mins; type: ADME, organism-based; set-up: dose 100 mg/kg, route intraperitoneal

Compound | Activity [1] | Ki [2] | Ki (Orexin receptor type 2) | other results
O=C(Nc1ccccc1-c1ccccc1F)[C@@H]1CCCN1C(=O)CCc1nc2ccccc2[nH]1 | 4 nM | 27 nM | 3 nM | –
O=C(Nc1ccccc1-c1ccccc1)[C@@H]1CCCN1C(=O)CCc1nc2ccccc2[nH]1 | 20 nM | 40 nM | 6 nM | –
O=C(Nc1ccccc1-n1cccc1)[C@@H]1CCCN1C(=O)CCc1nc2ccccc2[nH]1 | 36 nM | 130 nM | 11 nM | Activity [3]: 520 nM
Cc1ccc2[nH]c(SCC(=O)N3CCC[C@H]3C(=O)Nc3ccccc3-n3cccc3)nc2c1 | 2 nM | – | – | –
O=C(Nc1ccc(-c2ccccc2)cc1)[C@@H]1CCCN1C(=O)CSc1nc2ccccc2[nH]1 | 143 nM | 2300 nM | 11 nM | –
O=C(Nc1ccccc1-n1cccc1)[C@@H]1CCCN1C(=O)CSc1nc2ccccc2o1 | 28 nM | 120 nM | 8 nM | –
Cn1c(CCC(=O)N2CCC[C@H]2C(=O)Nc2ccccc2-c2ccccc2)nc2ccccc21 | 5 nM | 15 nM | 0.8 nM | half-life [4]: 18 min; Activity [5]: < 10 µM; Activity [6]: < 10 µM
O=C(Nc1ccccc1-c1ccccc1)[C@@H]1CCCN1C(=O)CSc1nc2ccccc2[nH]1 | 7 nM | 10 nM | 0.6 nM | –
Cn1c(CCC(=O)N2CCC[C@H]2C(=O)Nc2ccccc2-n2cccc2)nc2ccccc21 | 3 nM | 49 nM | 2 nM | –
O=C(Nc1ccccc1-n1cccc1)[C@H]1CCCN1C(=O)CSc1nc2ccccc2[nH]1 | – | 2500 nM | 131 nM | –
Cc1ccc2nc(SCC(=O)N3CCC[C@H]3C(=O)Nc3ccccc3-n3cccc3)[nH]c2c1 | – | 3 nM | 0.2 nM | –
O=C(Nc1ccccc1-n1cccc1)[C@@H]1CCCN1C(=O)CSc1nc2ccccc2[nH]1 | 6 nM | 28 nM | 1 nM | –
Cc1ccc2nc(SCC(=O)N3CCC[C@H]3C(=O)Nc3ccccc3-n3cccc3)n(C)c2c1 | 8 nM | 2 nM | 0.1 nM | –
O=C(Nc1ccccc1-n1cccc1)[C@@H]1CCCN1C(=O)CSc1nc2ccccc2s1 | 11 nM | 39 nM | 2 nM | –
COc1ccccc1-c1ccccc1NC(=O)[C@@H]1CCCN1C(=O)CCc1nc2ccccc2[nH]1 | 5 nM | 86 nM | 2 nM | –
O=C(Nc1ccccc1)[C@@H]1CCCN1C(=O)CSc1nc2ccccc2[nH]1 | 4050 nM | 1400 nM | 560 nM | –
O=C(Nc1ccccc1Oc1ccccc1)[C@@H]1CCCN1C(=O)CSc1nc2ccccc2[nH]1 | 16 nM | 69 nM | 3 nM | –
O=C(Nc1cccc(-c2ccccc2)c1)[C@@H]1CCCN1C(=O)CSc1nc2ccccc2[nH]1 | 2640 nM | 500 nM | 280 nM | –
Cn1c(SCC(=O)N2CCC[C@H]2C(=O)Nc2ccccc2-n2cccc2)nc2ccccc21 | 2 nM | 9 nM | 0.3 nM | –
Cc1ccc2c(c1)nc(SCC(=O)N1CCC[C@H]1C(=O)Nc1ccccc1-n1cccc1)n2C | 8 nM | 0.7 nM | 0.09 nM | –
Cn1c(SCC(=O)N2CCC[C@H]2C(=O)Nc2ccccc2-c2ccccc2)nc2ccccc21 | 4 nM | – | 0.2 nM | concentration at 0.5 h [7]: 43 nM; Activity [8]: < 10 µM; half-life [4]: 18 min; bioavailability [9]: 11%; Activity (Rattus norvegicus): Dose-dependent effect; clearance [10]: 3.7 mL/min/kg; Activity [11]: < 10 µM; logP [12]: 3.4; concentration at 0.5 h [13]: 2370 nM; Activity [14]: < 10 µM; concentration at 0.5 h [15]: 3500 nM
